The structures appear in SMILES notation.

One assay has as its system Ca^2+ intake in the cell. Kind of assay: Effect of the compounds on the calcium influx (Ca2+ intake) to the cell. Format: cell-based. The note with it: compound 20 μg/ml; − = decrease, + = increase. An excerpt:
(§1) In the following Table I some of the preferred plant-derived phenolic compounds according to the present invention, the effect of the compounds on the calcium influx to the cell, the antioxidant effect as well as the chemical structure of the compounds are presented.

The nature of assay [1]: Antioxidant effect, IC50 against DPPH. Format: biochemical. The conditions noted are these: read-out: IC50 [moles L^−1] against DPPH′.
Description: as §1
On the technique in general: Loss of DPPH colour is used to gauge radical scavenging.

A further assay has as its system C. pneumoniae. Kind of assay: Direct anti-chlamydial effect of compounds and mixtures on C. pneumoniae (Example 5). Format: cell-based. The conditions noted are these: 50 μM; for inhibition at 50 µM: Chlamydia pneumoniae, read-out: Inhibition %. On the procedure: Direct Anti-Chlamydial Effect of Plant-Derived Phenolic Compounds, Certain Synthetic Compounds and Mixtures on C. pneumoniae
The concentration used was 50 μM.
The cultivated HL cells are infected with C. pneumoniae EB's. The EB's which have invaded the cell are changed into the metabolically active reticulate body (RB) which are dividing by binary fission in the endosome vacuole or inclusion.
After a certain time (about 72 hr) the C. pneumoniae RB's are condensing back into EB's, after which the inclusions are broken, the host cells are broken and the EB's are liberated. In this method the intention is to verify the inclusions before the breaking up of the host cells.
On the day preceding the infection the host cells are inoculated on a 24-well plate: the cells are harvested by trypsinisation, they are suspended in ca. 5 ml of the nutrition liquid and counted in a Burker's chamber. Each well are seeded using a concentration of 250000-400000 cells/well for cultivation. Before the addition of the cells to the well is if necessary round cover glass (diameter 13 mm) put for staining. Nutrition liquid is added so that the volume is 1 ml/well. On the following day the cells are infected with the desired bacterium.
Solution to be used in the infection and containing chlamydiae particles is mixed throughout. The old nutrition liquid is aspirated away. By the infection the inoculum which has been stored at −70° C. is diluted to an IFU concentration of ca. 10^3 so that the volume of the solution is at least 200 μl/well on a 24-well plate. The cells are infected by centrifuging at 1600 rpm (550×g)/1 hr. The nutrition medium is aspirated away and changed to a maintenance medium containing cyclohexamide and also containing the studied compound (DMSO concentration 0.2%), 1 ml/well. The cells are incubated in a 5% CO2 atmosphere at +35° C. The cells infected with C. pneumoniae are incubated for 3 days. After 2-3 days the maintenance medium is removed and the cells washed with 1×1 ml of PBS. To the wells 200 μl of SPG are added for further infection, harvested with a pipette tip and transferred into tubes. This is used for infecting new cells in the same way as above to test the inhibition of infectivity (chlamydiasidic effect).
The nutrition medium, which is above the cover glass left for staining, is aspirated away. The infected cells are fixed on the cover glass with methanol for 10 min. The cover glass is removed from the well and -transferred onto a suitable fluorescein-conjugated monoclonal antibody on Parafilm in a moist chamber with the cell-containing side down. The cover glass is incubated for 30 min at +37° C. and washed twice with PBS and once with water. Finally it is dried. The cover glass is put with the cell-containing side down on an object glass containing a fixative (e.g. Mounting medium). When viewed under the fluorescent microscope, cell culture specimens infacted with chlamydiae show a characteristic apple-green fluorescence of inclusions against a red counterstained background.

As usually defined, the IC50 is the concentration at which inhibition is half-maximal. With `COc1ccc(-c2cc(=O)c3c(O)cc(O)cc3o2)cc1` [Acacetin], the “Effect on Ca^2+ intake [%]” value in the assay with Ca^2+ intake in the cell is on record as −1.39%. In assay [1], the IC50 was more than 3520 µM.

The inhibition is the drop in the measured response relative to a control, in per cent. Consider `O=c1cc(-c2ccc(O)cc2)oc2cc(O)cc(O)c12` [Apigenin], for which, in the assay with Ca^2+ intake in the cell, the inhibition at 20 µg/mL is 29.3%. In addition, the IC50 in assay [1] is more than 3700 µM. Further, the inhibition at 50 µM in the assay with C. pneumoniae is 100%.

In the case of `O=C(O)c1ccccc1` [Benzoic acid], in the assay with Ca^2+ intake in the cell, the “Effect on Ca^2+ intake [%]” value was −9.82%. In addition, the IC50 in assay [1] was more than 8190 µM. Besides, the Inhibition % in the assay on C. pneumoniae amounted to 44%.

As for `O=C(O)/C=C/c1ccc(O)c(O)c1` [Caffeic acid], in the assay on Ca^2+ intake in the cell, the inhibition at 20 µg/mL was -9.71%. Moreover, the concentration for half-maximal inhibition (IC50) in assay [1] is 21.4 µM. Also, the inhibition at 50 µM with C. pneumoniae turned out to be 78%.

Turning to `O=c1c(-c2ccc(O)cc2)coc2cc(O)ccc12` [Daidzein], in the assay with Ca^2+ intake in the cell, the “Effect on Ca^2+ intake [%]” value is −26.2%. In assay [1], the half-maximal inhibitory concentration (IC50) was more than 3930 µM. Besides, in the assay with C. pneumoniae, the Inhibition % is 51%.

Regarding `CCCCCCCCCCCCOC(=O)c1cc(O)c(O)c(O)c1` [Dodecyl gallate], the inhibition at 20 µg/mL in the assay with Ca^2+ intake in the cell came out at 40.4%. Also, the IC50 in assay [1] was determined as 15.4 µM. Besides, the inhibition at 50 µM in the assay on C. pneumoniae came out at 100%.

Turning to `COc1cc(/C=C/C(=O)O)ccc1O` [Ferulic acid], the inhibition at 20 µg/mL in the assay on Ca^2+ intake in the cell is -9.23%. For the same molecule, the half-inhibitory concentration (IC50) in assay [1] was 44.3 µM. Moreover, the inhibition at 50 µM in the assay with C. pneumoniae amounted to 14%.

Regarding `O=c1cc(-c2ccccc2)oc2ccccc12` [Flavone], the inhibition at 20 µg/mL in the assay on Ca^2+ intake in the cell stood at 63.5%. Also, the half-maximal inhibitory concentration (IC50) in assay [1] was more than 4500 µM. For the same molecule, the inhibition at 50 µM in the assay on C. pneumoniae was found to be 90%.

Take `O=C(O)c1cc(O)c(O)c(O)c1` [Gallic acid]: the inhibition at 20 µg/mL in the assay with Ca^2+ intake in the cell was found to be 5.33%. In addition, the IC50 in assay [1] is 21.5 µM. Moreover, in the assay on C. pneumoniae, the inhibition at 50 µM turned out to be 27%.

Take `O=c1c(-c2ccc(O)cc2)coc2cc(O)cc(O)c12` [Genistein]: in the assay with Ca^2+ intake in the cell, the inhibition at 20 µg/mL stood at 54.6%. For the same molecule, in assay [1], the IC50 was more than 3700 µM. In addition, the inhibition at 50 µM in the assay on C. pneumoniae is 60%.

With `COc1cc(-c2oc3cc(O)cc(O)c3c(=O)c2O)ccc1O` [Isorhamnetin], the “Effect on Ca^2+ intake [%]” value in the assay with Ca^2+ intake in the cell is “+52.4%”. Moreover, the IC50 in assay [1] is 18.1 µM. In addition, the Inhibition % in the assay with C. pneumoniae amounted to 70%.

As to `O=c1cc(-c2ccc(O)c(O[C@@H]3O[C@H](CO)[C@@H](O)[C@H](O)[C@H]3O)c2)oc2cc(O[C@@H]3O[C@H](CO)[C@@H](O)[C@H](O)[C@H]3O)cc(O)c12` [Luteolin-3′,7-glucoside], in the assay on Ca^2+ intake in the cell, the “Effect on Ca^2+ intake [%]” value is listed as −14.6%. Moreover, the Inhibition % in the assay with C. pneumoniae is listed as 45%.

Take `O=c1cc(-c2ccc(O)c(O)c2)oc2cc(O[C@@H]3O[C@H](CO)[C@@H](O)[C@H](O)[C@H]3O)cc(O)c12` [Luteolin-7-glucoside]: the “Effect on Ca^2+ intake [%]” value in the assay with Ca^2+ intake in the cell was −16.3%. In assay [1], the IC50 came to 10.7 µM. Moreover, the Inhibition % in the assay on C. pneumoniae is 23%.

With `O=c1cc(-c2ccc(O)c(O)c2)oc2cc(O)cc(O)c12` [Luteolin], in the assay on Ca^2+ intake in the cell, the inhibition at 20 µg/mL is 51.4%. Moreover, in assay [1], the IC50 is 12 µM. Also, the inhibition at 50 µM with C. pneumoniae amounted to 100%.

For the molecule `COC(=O)c1cc(O)c(O)c(O)c1` [Methyl gallate], the IC50 in assay [1] amounted to 5.09 µM. Besides, the inhibition at 50 µM in the assay on C. pneumoniae stood at 100%.

As to `O=C1C[C@@H](c2ccc(O)cc2)Oc2cc(O)cc(O)c21` [Naringenin], the inhibition at 20 µg/mL in the assay with Ca^2+ intake in the cell was 56.3%. For the same molecule, in assay [1], the IC50 was more than 3670 µM. In the assay with C. pneumoniae, the inhibition at 50 µM was 16%.

Regarding `C[C@@H]1O[C@@H](O[C@H]2[C@H](Oc3cc(O)c4c(c3)O[C@H](c3ccc(O)cc3)CC4=O)O[C@H](CO)[C@@H](O)[C@@H]2O)[C@H](O)[C@H](O)[C@H]1O` [Naringin], the “Effect on Ca^2+ intake [%]” value in the assay with Ca^2+ intake in the cell is “+6.5%”. For the same molecule, the Inhibition % in the assay on C. pneumoniae was 66%.

As to `C[C@@H]1O[C@@H](O[C@@H]2[C@@H](O)[C@H](O)[C@@H](CO)O[C@H]2c2c(O)cc(O)c3c(=O)cc(-c4ccc(O)cc4)oc23)[C@H](O)[C@H](O)[C@H]1O` [Vitexin-2″-O-rhamnoside], in the assay with Ca^2+ intake in the cell, the “Effect on Ca^2+ intake [%]” value is reported as −14.6%. Moreover, in the assay on C. pneumoniae, the Inhibition % amounted to 11%.

As for `O=c1cc(-c2ccc(O)cc2)oc2c([C@@H]3O[C@H](CO)[C@@H](O)[C@H](O)[C@H]3O)c(O)cc(O)c12` [Vitexin], the “Effect on Ca^2+ intake [%]” value with Ca^2+ intake in the cell is −2.12%. Also, the Inhibition % in the assay on C. pneumoniae is reported as 3%.

The values above are taken from US20040058983A1, “Plan-derived and synthetic phenolic compounds and plant extracts, effective in the treatment and prevention of chlamydial infections” (priority 2000, published 2004).
